Key:
Format in all cases: cell-based
[1] = target: T1, 5-HT2B receptor (Homo sapiens, UniProt P41595); assay: 5-HT2B activation in a similar assay at a single 10 μM concentration
T1 construct: host or cells: CHO-K1
Protocol: Activation data are provided in a similar assay tested at a single 10 μM concentration.

[2] = target: T2, 5-HT2C receptor (Homo sapiens, UniProt P28335); assay: FLIPR Ca2+ flux functional assay, agonist activity at 5-HT2C; settings: stably transfected HEK293 cells
T2 construct: host or cells: HEK293
T2 sequence (P28335 33-458): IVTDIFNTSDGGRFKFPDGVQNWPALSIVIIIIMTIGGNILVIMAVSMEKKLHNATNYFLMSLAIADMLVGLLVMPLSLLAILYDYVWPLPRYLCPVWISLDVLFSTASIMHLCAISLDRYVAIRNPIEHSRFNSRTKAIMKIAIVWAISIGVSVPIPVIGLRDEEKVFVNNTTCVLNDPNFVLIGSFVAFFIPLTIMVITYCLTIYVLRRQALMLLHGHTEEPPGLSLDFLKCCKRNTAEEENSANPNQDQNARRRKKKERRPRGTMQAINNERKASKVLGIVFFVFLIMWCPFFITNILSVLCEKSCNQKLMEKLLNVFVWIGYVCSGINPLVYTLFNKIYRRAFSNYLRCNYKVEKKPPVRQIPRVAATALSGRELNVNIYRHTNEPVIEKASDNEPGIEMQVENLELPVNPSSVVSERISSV
Protocol: (§1) Functional assays 5-HT2A, 5-HT2B and 5-HT2C Receptors
(§2) Activity at 5-HT2A, 5-HT2B and 5-HT2C receptors was determined using a FLIPR Ca2+ flux assay at WuXi AppTec Co. Ltd. (Hong Kong) Discovery Biology Unit according to their standard protocols. Briefly, stably transfected cells expressing the receptor of interest (HEK293 for 5-HT2A and 5-HT2C; CHO-K1 for 5-HT2B) were grown and plated in a 384 well plate and incubated at 37° C. and 5% CO2 overnight. A 250 mM stock solution of probenecid in FLIPR calcium assay buffer (10 mL) was freshly prepared and combined with a fluorescent dye (Fluo-4 Direct) to give a final assay concentration of 2.5 mM. Reference compounds were 4-fold serially diluted and the screening compounds were 3-fold serially diluted in 100% DMSO for 10 points using Agilent Bravo, and 750 nL was added to a 384 well compound plate using Echo along with 30 μL assay buffer. The fluorescent dye was then added to the assay plate along with assay buffer to a final volume of 40 μL. The cell plate was incubated for 50 min at 37° C. and 5% CO2 and placed into the FLIPR Tetra along with the compound plate. 10 μL of references and compounds were then transferred from the compound plate into the cell plate and the fluorescent signal was read.

[3] = target: T3, 5-HT2A receptor (Homo sapiens, UniProt P28223); assay: FLIPR Ca2+ flux functional assay, agonist activity at 5-HT2A; settings: stably transfected HEK293 cells
T3 construct: host or cells: HEK293
T3 sequence (P28223 whole entry): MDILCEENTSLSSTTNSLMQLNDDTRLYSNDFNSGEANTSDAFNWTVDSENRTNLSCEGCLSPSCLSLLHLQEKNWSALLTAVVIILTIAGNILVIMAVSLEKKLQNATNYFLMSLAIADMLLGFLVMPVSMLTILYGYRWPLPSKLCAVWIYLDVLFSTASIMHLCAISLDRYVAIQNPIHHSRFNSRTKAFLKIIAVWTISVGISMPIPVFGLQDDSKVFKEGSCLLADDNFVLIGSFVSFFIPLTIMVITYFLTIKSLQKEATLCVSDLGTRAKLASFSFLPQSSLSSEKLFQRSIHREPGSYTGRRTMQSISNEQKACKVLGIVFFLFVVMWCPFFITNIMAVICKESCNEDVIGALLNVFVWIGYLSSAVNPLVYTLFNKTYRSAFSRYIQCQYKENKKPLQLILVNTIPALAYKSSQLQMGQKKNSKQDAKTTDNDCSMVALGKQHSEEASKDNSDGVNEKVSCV
Protocol: as §1, §2

T1 sequence (P41595 whole entry): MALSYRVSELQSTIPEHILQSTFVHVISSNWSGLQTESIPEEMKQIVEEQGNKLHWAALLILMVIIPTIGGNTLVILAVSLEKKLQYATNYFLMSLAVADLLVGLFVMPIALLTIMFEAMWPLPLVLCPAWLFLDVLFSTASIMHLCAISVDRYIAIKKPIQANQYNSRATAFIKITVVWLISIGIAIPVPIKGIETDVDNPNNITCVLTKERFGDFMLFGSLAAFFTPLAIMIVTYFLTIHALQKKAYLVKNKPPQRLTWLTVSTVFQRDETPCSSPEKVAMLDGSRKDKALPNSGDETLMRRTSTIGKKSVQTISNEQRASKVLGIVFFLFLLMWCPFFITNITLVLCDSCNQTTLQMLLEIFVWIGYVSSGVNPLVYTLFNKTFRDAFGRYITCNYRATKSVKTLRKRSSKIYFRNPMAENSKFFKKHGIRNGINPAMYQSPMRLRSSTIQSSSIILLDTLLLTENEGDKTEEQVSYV

SMILES | 5-HT2B % Activation @ 10 μM [1] | EC50 [2] | Emax [2] | EC50 [3] | Emax [3]
Fc1cnc2[nH]cc(CCN3CCC4CC43)c2c1 (stereo not shown) [Compound S25, 3-(2-(2-azabicyclo[3.1.0]hexan-2-yl)ethyl)-5-fluoro-1H-pyrrolo[2,3-b]pyridine] | 41% | 76 nM | 84% | 8.98 nM | 87%
Fc1cnc2[nH]cc(CCN(C3CC3)C3CC3)c2c1 [Compound S5, N-cyclopropyl-N-(2-(5-fluoro-1H-pyrrolo[2,3-b]pyridin-3-yl)ethyl)cyclopropanamine] |  | > 10000 nM | 28% | 1070 nM | 82%
COc1cnc2[nH]cc(CCN(C)C3CC3)c2c1 [Compound S44, N-(2-(5-methoxy-1H-pyrrolo[2,3-b]pyridin-3-yl)ethyl)-N-methylcyclopropanamine] | 1% | 2830 nM | 45% | 9.49 nM | 82%
Fc1cnc2[nH]cc(CCN3CCC34CCC4)c2c1 [Compound S8, 3-(2-(1-azaspiro[3.3]heptan-1-yl)ethyl)-5-fluoro-1H-pyrrolo[2,3-b]pyridine] |  | > 10000 nM | 0% | 354 nM | 56%
COc1cccc(CNCCc2c[nH]c3ncc(C#N)cc23)c1 [Compound S75, 3-(2-((3-methoxybenzyl)amino)ethyl)-1H-pyrrolo[2,3-b]pyridine-5-carbonitrile] | 1% | 3620 nM | 46% | 44.4 nM | 79%
Fc1cnc2[nH]cc(CCNCC3CC3)c2c1 [Compound S17, N-(cyclopropylmethyl)-2-(5-fluoro-1H-pyrrolo[2,3-b]pyridin-3-yl)ethan-1-amine] | 7% | 4120 nM | 35% | 134 nM | 84%
Fc1cnc2[nH]cc(CCNCc3ccccc3F)c2c1 [Compound S30, 2-(5-fluoro-1H-pyrrolo[2,3-b]pyridin-3-yl)-N-(2-fluorobenzyl)ethan-1-amine] |  | 512 nM | 83% | 26.9 nM | 82%
Brc1cnc2[nH]cc(CCN3CCCC3)c2c1 [Compound S57, 5-bromo-3-(2-(pyrrolidin-1-yl)ethyl)-1H-pyrrolo[2,3-b]pyridine] | 12% | 3480 nM | 62% | 897 nM | 86%
CCN(C)CCc1c[nH]c2ncc(Br)cc12 [Compound S54, 2-(5-bromo-1H-pyrrolo[2,3-b]pyridin-3-yl)-N-ethyl-N-methylethan-1-amine] | 1% | > 10000 nM | 19% | 223 nM | 69%
CC1CCN1CCc1c[nH]c2ncc(C#N)cc12 (stereo not shown) [Compound S71, 3-(2-(2-methylazetidin-1-yl)ethyl)-1H-pyrrolo[2,3-b]pyridine-5-carbonitrile] | 0% | > 10000 nM | 9% | 1140 nM | 81%
COc1cccc(CNCCc2c[nH]c3ncc(F)cc23)c1 [Compound S33, 2-(5-fluoro-1H-pyrrolo[2,3-b]pyridin-3-yl)-N-(3-methoxybenzyl)ethan-1-amine] |  | 244 nM | 87% | 8.27 nM | 82%
CN(CCc1c[nH]c2ncc(F)cc12)C1CCC1 [Compound S12, N-(2-(5-fluoro-1H-pyrrolo[2,3-b]pyridin-3-yl)ethyl)-N-methylcyclobutanamine] |  | 3370 nM | 50% | 79 nM | 84%
COc1cnc2[nH]cc(CCN3CCCCC3)c2c1 [Compound S47, 5-methoxy-3-(2-(piperidin-1-yl)ethyl)-1H-pyrrolo[2,3-b]pyridine] | 0% | > 10000 nM | 8% | 673 nM | 65%
C[C@@H]1CCCN1CCc1c[nH]c2ncc(F)cc12 [Compound S50, (R)-5-fluoro-3-(2-(2-methylpyrrolidin-1-yl)ethyl)-1H-pyrrolo[2,3-b]pyridine] | 2% | 3980 nM | 44% | 66.5 nM | 90%
COc1cnc2[nH]cc(CCN3CCCC3)c2c1 [Compound S46, 5-methoxy-3-(2-(pyrrolidin-1-yl)ethyl)-1H-pyrrolo[2,3-b]pyridine] | 3% | 4170 nM | 43% | 47 nM | 91%
C[C@H]1CCCN1CCc1c[nH]c2ncc(F)cc12 [Compound S51, (S)-5-fluoro-3-(2-(2-methylpyrrolidin-1-yl)ethyl)-1H-pyrrolo[2,3-b]pyridine] | 0% | > 10000 nM | 2% | 394 nM | 86%
C[C@H]1CCN1CCc1c[nH]c2ncc(F)cc12 [Compound S48, (S)-5-fluoro-3-(2-(2-methylazetidin-1-yl)ethyl)-1H-pyrrolo[2,3-b]pyridine] | 2% | 3960 nM | 44% | 115 nM | 82%
Fc1ccccc1CNCCc1c[nH]c2ncc(Br)cc12 [Compound S60, 2-(5-bromo-1H-pyrrolo[2,3-b]pyridin-3-yl)-N-(2-fluorobenzyl)ethan-1-amine] | 0% | 1790 nM | 63% | 285 nM | 66%
COc1ccccc1CNCCc1c[nH]c2ncc(F)cc12 [Compound S32, 2-(5-fluoro-1H-pyrrolo[2,3-b]pyridin-3-yl)-N-(2-methoxybenzyl)ethan-1-amine] |  | 206 nM | 89% | 3.31 nM | 94%
COc1ccccc1CNCCc1c[nH]c2ncc(Br)cc12 [Compound S62, 2-(5-bromo-1H-pyrrolo[2,3-b]pyridin-3-yl)-N-(2-methoxybenzyl)ethan-1-amine] | 1% | 480 nM | 85% | 7.86 nM | 78%
CN(CCc1c[nH]c2ncc(F)cc12)C1CC1 [Compound S1, N-(2-(5-fluoro-1H-pyrrolo[2,3-b]pyridin-3-yl)ethyl)-N-methylcyclopropanamine] | 2% | 1440 nM | 77% | 33.7 nM | 82%
Fc1cnc2[nH]cc(CCNCc3ccccc3)c2c1 [Compound S34, N-benzyl-2-(5-fluoro-1H-pyrrolo[2,3-b]pyridin-3-yl)ethan-1-amine] |  | 319 nM | 84% | 18 nM | 90%
Fc1cnc2[nH]cc(CCNC3CCC3)c2c1 [Compound S11, N-(2-(5-fluoro-1H-pyrrolo[2,3-b]pyridin-3-yl)ethyl)cyclobutanamine] |  | > 10000 nM | 25% | 136 nM | 80%
Fc1cnc2[nH]cc(CCN3CCC3)c2c1 [Compound S9, 3-(2-(azetidin-1-yl)ethyl)-5-fluoro-1H-pyrrolo[2,3-b]pyridine] |  | 1480 nM | 72% | 21 nM | 83%
Fc1cnc2[nH]cc(CCN3CCOCC3)c2c1 [Compound S15, 4-(2-(5-fluoro-1H-pyrrolo[2,3-b]pyridin-3-yl)ethyl)morpholine] |  | > 10000 nM | 0% | 1940 nM | 72%
Fc1cccc(CNCCc2c[nH]c3ncc(F)cc23)c1 [Compound S31, 2-(5-fluoro-1H-pyrrolo[2,3-b]pyridin-3-yl)-N-(3-fluorobenzyl)ethan-1-amine] |  | 515 nM | 76% | 15.5 nM | 87%
CN(CCc1c[nH]c2ncc(F)cc12)CC1CC1 [Compound S43, N-(cyclopropylmethyl)-2-(5-fluoro-1H-pyrrolo[2,3-b]pyridin-3-yl)-N-methylethan-1-amine] |  | 2740 nM | 55% | 155 nM | 71%
CC1CCN1CCc1c[nH]c2ncc(F)cc12 (stereo not shown) [Compound S16, 3-(2-(2-methylazetidin-1-yl)ethyl)-5-fluoro-1H-pyrrolo[2,3-b]pyridine] |  | 1100 nM | 60% | 32.5 nM | 81%

From patent US20250361233A1, “Compounds For Activating Serotonin Receptor” (PSYLO PTY LTD, priority 2023, published 2025)
